The test system of assay [1] is human progesterone receptor (full length, PRA). Kind of assay: Competitive binding, full length human progesterone receptor. The note with it: compared to progesterone. On the procedure: (§1) The study aimed to characterize the competitive binding profile of EC313 to relevant human nuclear receptors. For the assays, commercially available ‘ligand binding domain’ proteins were purchased (Thermo Fisher Scientific). In addition, the full-length receptor proteins were expressed in transfected HI insect cells using the `Bac-to-bac Baculovirus expression system´ (Thermo Fisher Scientific). Cellular lysates served as receptor preparation. Receptor protein preparations were incubated with tritiated reference ligands and EC313 or reference steroids at concentrations between 0.1 and 1000 nM for 2h at 4°C to reach equilibrium. Subsequently, unbound steroids were adsorbed to dextran-coated charcoal (Sigma Aldrich), separated by filtration, and the remaining radioactivity was quantified in a ß-counter (Perkin Elmer). Displacement curves were fitted using the GraphPad Prism 7 free version to obtain EC50 values. Relative binding affinity (RBA [%], (C50ref/C50test)*100) and the competition coefficient (C50test/C50ref) were used to describe the relative binding potency of EC313 compared to the reference ligands.

For assay [2], the system named is estrogen-primed endometrium of immature rabbits. In words: McPhail assay, estrogen-primed rabbit endometrium. The conditions noted are these: 10 and 30 mg/animal/day; progesterone 1 mg/animal/day; p< 0.05. In kind it is in vivo.
Another assay concerns the target T1, GR (Homo sapiens, UniProt P04150).
T1 sequence (P04150 1-777): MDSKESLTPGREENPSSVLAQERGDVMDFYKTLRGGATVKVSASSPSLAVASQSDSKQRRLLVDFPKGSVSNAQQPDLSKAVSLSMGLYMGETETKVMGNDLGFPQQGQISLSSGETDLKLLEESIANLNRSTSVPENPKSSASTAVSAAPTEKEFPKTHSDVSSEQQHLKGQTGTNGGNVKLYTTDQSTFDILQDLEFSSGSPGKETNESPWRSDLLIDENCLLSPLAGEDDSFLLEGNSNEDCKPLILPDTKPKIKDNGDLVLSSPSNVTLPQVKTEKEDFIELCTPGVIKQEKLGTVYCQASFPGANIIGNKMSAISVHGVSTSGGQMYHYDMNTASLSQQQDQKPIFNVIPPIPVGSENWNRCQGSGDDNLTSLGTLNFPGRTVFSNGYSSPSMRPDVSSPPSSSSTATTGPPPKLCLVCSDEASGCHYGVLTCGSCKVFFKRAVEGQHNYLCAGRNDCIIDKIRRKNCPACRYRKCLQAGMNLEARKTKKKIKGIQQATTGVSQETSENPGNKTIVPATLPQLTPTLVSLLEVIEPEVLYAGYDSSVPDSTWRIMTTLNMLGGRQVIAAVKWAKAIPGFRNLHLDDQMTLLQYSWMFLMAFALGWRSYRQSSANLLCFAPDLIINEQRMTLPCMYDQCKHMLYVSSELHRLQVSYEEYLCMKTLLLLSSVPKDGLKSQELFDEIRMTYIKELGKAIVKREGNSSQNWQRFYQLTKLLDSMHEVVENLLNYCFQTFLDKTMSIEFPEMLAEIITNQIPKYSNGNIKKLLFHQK
Kind of assay: Competitive binding, full length human glucocorticoid receptor. Details: made in house; host or cells: HI (Hi5) insect cells, baculovirus; cellular lysate. On the procedure: as §1

The subject of assay [3] is human uterine fibroid xenografts. In words: Human uterine fibroid xenografts in NOD-SCID mice. Format: in vivo. The conditions noted are these: Part B; 0.01 mg/kg/day s.c. On the procedure:
Fibroids/Leiomyoma are one of the clinical target indications for the development of EC313. But, there are no very reliable pre-clinical models known at present. From all experimental approaches, the transplantation of human fibroid tissue into immunodeficient mice s.c. resembles the clinical situation most closely. UPA served as a reference compound. There were two study parts: A and B. Part A is already published ([2]). Human uterine fibroid samples (2x2x2 mm; weighting roughly 8 mg) were transplanted s.c. into NOD-SCID mice 3 weeks after ovariectomy. Simultaneously, the animals were supplemented s.c. with E2-releasing pellets (0.05 mg E2/90 days release). The treatment period over 60 days (5 treatment days a week) started immediately after transplantation. There was a sham control, an E2 control, two EC313-group, one Ulipristal (UA) group, and a combination of UPA+EC313 (Part A). […] The animals were sacrificed after a treatment period of 60 days. Graft weights were the primary endpoint (parts A and B); histological findings including immunostainings of the grafts were used as secondary endpoints (part A).
(Xenograft models place foreign cells or tissue in a host animal.)

Assay [4] addresses T2, human progesterone receptor ligand binding domain (PR-LBD) (Homo sapiens, UniProt P06401).
T2 construct: purchased Thermo Fisher Scientific
Kind of assay: Competitive binding, PR ligand binding domain. The conditions noted are these: compared to progesterone. Here is the method: as §1

In assay [5] the test system is human endometriotic tissue grafts. Kind of assay: Human endometriotic xenografts in immunodeficient mice. Format: in vivo. The conditions noted are these: s.c. once daily 14 days; EC313 0,01, 0.1, 1 mg/animal/day; Ulipristal acetate 1 mg/animal/day; vs vehicle control. From the text:
Endometriosis is one of the expected clinical target indications for the development of EC313. But, there are no reliable pre-clinical models known at present. From all experimental approaches, the transplantation of human endometriotic tissue into immunodeficient mice resembles the clinical situation to some extent closely. Treatment of EC313 was compared with UPA as a reference compound. Two to four small pieces of human endometriotic tissue were placed into a s.c. pouch in the pelvic area of each of the ovariectomized mice. At the same time, an E2-releasing pellet (0.36 mg/pellet/60 days) was implanted s.c. in the neck of the mice. Furthermore, 2 weeks after implantation, the mice were treated with once-daily s.c. injections of vehicle, EC313 (0,01, 0.1, and 1 mg/animal/day), or Ulipristal acetate (1 mg/animal/day) for 14 days. The mice were sacrificed 24 hours after the last injection and all identified endometriotic grafts were resected, weighed, and subjected to visual examination.

In assay [6] the test system is progesterone receptor (PRA, PRB) in T47D cells. Kind of assay: PR nuclear translocation in T47D cells (Western blot). In kind it is cell-based, human. The conditions noted are these: 100 nM, compared to Promegestone, Mifepristone or Asoprisnil. On the procedure: Subsequently, progesterone receptors present in nuclear as well as cytosolic fractions were stained using Western blotting.
[…] (constitutively expressing the progesterone receptor) were treated with 100 nM of EC313 or reference compounds to activate PR. After 6h and after 24h cells were lysed, the nuclear and cytosolic fractions were separated and Western blots of these fractions were prepared.
Blots were stained for PRA and PRB as well as the housekeeping proteins GAPDH (as a marker for the cytosolic fraction) and histone H3 (as a marker for the nuclear fraction). Nuclear and cytoplasmic proteins from […] were extracted after cell stimulation with PR ligands and the nuclear and cytoplasmic fractions were analyzed for PRB and PRA content using Western blotting.

Where “and” joins values, the source holds several entries; their conditions need not be identical. Equal entries are not always repeated.

As usually defined, the IC50 is the concentration needed to halve the response being measured.

T2 sequence (P06401 679-913 limits assumed): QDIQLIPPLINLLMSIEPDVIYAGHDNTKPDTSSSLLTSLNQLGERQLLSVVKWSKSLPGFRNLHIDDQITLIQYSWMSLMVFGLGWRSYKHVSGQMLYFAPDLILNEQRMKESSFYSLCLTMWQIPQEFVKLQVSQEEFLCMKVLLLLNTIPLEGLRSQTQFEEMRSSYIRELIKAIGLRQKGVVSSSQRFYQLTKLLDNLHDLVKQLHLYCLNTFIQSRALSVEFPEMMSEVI

`C[C@]12C[C@H](c3ccc(-c4ccoc4)cc3)C3=C4CCC(=O)C=C4CC[C@H]3[C@@H]1CC[C@]21OCCC1=C(F)F` [EC313] had a competition coefficient in assay [1] of 3.4. In assay [2], the “antagonistic action with co-administered progesterone” value was “significant”. In addition, on GR (EC313 relative to Dexamethasone), the “Comp. Coefficient” value is 12 and 11.8. Also, at GR (tritiated ligand displacement), the IC50 came out at 226 ± 9 nM. Also, the “anti-fibroid activity at very low dose” value in assay [3] is reported as “demonstrated”. The “affinity to the ligand binding domain” value in assay [4] is on record as “the same as that of progesterone”. Also, the “weights of human endometriotic tissue grafts” value in assay [5] is given as “significantly lower weights of the grafts”. Also, the “receptors retained in the nuclear fraction after 24 hours” value in assay [6] is recorded as “retained more receptors in the nuclear fraction”.
